From patent US8993527B2, “Methods, compositions, and formulations for preventing or reducing adverse effects in a patient” (Pericor Therapeutics, Inc., priority 2005, dated 2015)
Where a name gives a salt, the structure may show the parent alone.

Legend:
[1] = molecular target: T1, calf intestinal musosa adenosine deaminase (Bos taurus, UniProt P56658); assay: Adenosine deaminase activity; assay type: biochemical; settings: 80 μM adenosine, 10 minutes at 37° C.
T1 construct: 0.002 units of calf intestinal musosa adenosine deaminase; from tissue; host or cells: calf intestinal mucosa
T1 sequence (P56658 whole entry): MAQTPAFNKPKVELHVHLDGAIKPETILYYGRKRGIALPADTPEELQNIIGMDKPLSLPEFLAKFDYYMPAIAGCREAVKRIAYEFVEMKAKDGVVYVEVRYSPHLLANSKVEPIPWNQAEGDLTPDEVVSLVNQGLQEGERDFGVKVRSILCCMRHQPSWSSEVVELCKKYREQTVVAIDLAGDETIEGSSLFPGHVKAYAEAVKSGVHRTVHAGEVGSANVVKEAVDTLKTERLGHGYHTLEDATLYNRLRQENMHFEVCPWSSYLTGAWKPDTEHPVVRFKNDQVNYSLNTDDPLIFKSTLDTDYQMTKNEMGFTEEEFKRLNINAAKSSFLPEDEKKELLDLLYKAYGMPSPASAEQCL
Description: Different concentrations of the test compounds were incubated in the assay mixture for 10 minutes at 37° C. The reaction was monitored continuously for oxidation of NADH from the change in absorbance at 340 nm.

AMP deaminase = assay: Inhibition of AMP deaminase (14C-AMP to 14C-IMP); assay type: biochemical, human; settings: 200 μM of each ribotide
Description: The phosphorylated forms are referred to as AICA ribotide and ribavirin monophosphate, respectively. Using 200 μM of each ribotide, AMP deaminase was inhibited 38% and 54%, respectively.

[2] = system: granulocytes and endothelial cells; assay: Granulocyte/endothelial cell interaction, intravital microscopy of mesentery microvessels; assay type: in vivo, rat; settings: superfusion with 20 μM, approximately 2 μM in the vessel
Description: The parameter measured was the fracture stress between the two cell types.
These studies were performed by intravital microscopy filming of granulocytes in rat mesentary microvessels. The rolling velocity of granulocytes compared to the streaming velocity of red cells was calculated before and after the administration of adenosine.

[3] = molecular target: T2, NBTI-specific adenosine transport site (UniProt O54698); assay: [3H]-NBTI binding assay; settings: read-out: ED50 (50% displacement of bound [3H]-NBTI); 0.5 mg neuronal membrane protein, 0.5 nM [3H]-NBTI, 30 minutes
T2 sequence (O54698 1-457): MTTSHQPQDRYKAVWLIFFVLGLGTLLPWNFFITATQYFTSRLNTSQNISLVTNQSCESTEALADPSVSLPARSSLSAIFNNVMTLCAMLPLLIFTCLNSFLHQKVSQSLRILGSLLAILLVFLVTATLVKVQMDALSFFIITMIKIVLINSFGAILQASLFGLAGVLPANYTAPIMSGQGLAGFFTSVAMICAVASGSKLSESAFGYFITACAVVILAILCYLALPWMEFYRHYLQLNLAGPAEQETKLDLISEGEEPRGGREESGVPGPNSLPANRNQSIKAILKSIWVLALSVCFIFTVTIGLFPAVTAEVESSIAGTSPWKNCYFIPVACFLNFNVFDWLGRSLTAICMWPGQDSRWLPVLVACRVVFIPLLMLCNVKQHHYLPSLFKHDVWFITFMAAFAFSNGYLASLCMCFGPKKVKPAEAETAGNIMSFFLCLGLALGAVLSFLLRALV
Description: Increasing concentrations of the test compounds were incubated for 30 minutes with 0.5 mg neuronal membrane protein together with 0.5 nM [^3 H]-NBTI in a Tris buffer (pH 7.4) at room temperature. The assays were quenched and membranes collected by rapid filtration. Filters were then solubilized and radioactivity determined by scintillation counting.

brain ischemia = assay: Gerbil stroke model: hippocampal pyramidal cell survival; assay type: in vivo; settings: pretreatment with 500 mg/kg (FIG. 21)
Description: Ischemia was then induced by bilateral occlusion of both common carotid arteries for 5 minutes. Seven days following the ischemic insult, brains were removed and processed for histology.

ischemic rat hearts = assay: Rat heart ischemia model: tissue adenosine levels; assay type: in vivo
Description: Male rats were injected intraperitonealy with either the AICA riboside analog, AICA riboside or saline, as a control. After 60 minutes, the hearts were excised and incubated at 37° C. for a further 60 minutes. Tissue extracts were prepared and analyzed for adenosine by high performance liquid chromatography (HPLC).

[4] = system: longitudinal muscle from the guinea pig ileum; assay: Inhibition of stimulated contraction in isolated ileum; settings: electrically stimulated guinea pig ileum muscle
Excerpt: These are detailed in Table II.

[5] = system: coronary endothelial cells; assay: Inhibition of adenosine utilization in cell culture; assay type: cell-based; settings: Endothelial cell, 1 μM [3H] adenosine, 15 minutes
Description: In this assay, endothelial cells were incubated with 5 μM or 50 μM of the test compound together with 1 μM [^3H] adenosine for 15 minutes. Inhibition of adenosine utilization was determined by measuring the concentration of extracellular adenosine by scintillation counting following separation by thin layer chromatography (TLC).

[6] = system: platelet aggregation in human whole blood; assay: Inhibition of platelet aggregation in human whole blood; assay type: cell-based; settings: Homo sapiens, Platelet, 10 min, 10 minutes at 37° C., 10 µM adenosine added, ADP (6-25 μM)
Description: Whole blood was drawn from healthy donors and collected in 0.1 vol. of sodium citrate to prevent coagulation. Platelet aggregation was measured by the impedance technique using a Whole Blood Aggregometer. The test compounds were incubated in whole blood for 10 minutes at 37° C. and 10 µM adenosine was added 5 minutes before eliciting aggregation. Aggregation was induced by addition of ADP (6-25 μM) at the minimum concentration inducing full aggregation in untreated controls.

demand-induced ischemia = assay: Canine model of stable angina (repeated pacing with LAD stenosis); assay type: in vivo, dog
Description: Anesthetized male dogs were instrumented to measure regional myocardial wall thickening during right atrial pacing in the presence of a stenosis of the left anterior descending artery (Young & Mullane Am. J. Physiol. in press (1991)). In Table XIA, the effects on wall thickening and arterial pressure of six repeated episodes of pacing in animals treated with a continuous IV infusion of 50 μg/kg/min of the test compound administered post-pace #1 are compared with saline-treated control animals.

[7] = Oral bioavailability and half-life in fasted adult beagles; assay type: in vivo, dog; settings: beagle, dog, in vivo
Description: Heparinized blood and urine were collected at selected intervals over 24 hours. Each sample was chilled, centrifuged at 4° C. and frozen prior to HPLC analysis.

[8] = system: Mouse bone marrow-derived mast cells; assay: Ribavirin: mast cell β-hexosaminidase release

CCCCO[C@@H]1[C@H](O)[C@@H](CO)O[C@H]1n1cnc(C(N)=O)c1N [32 (1-262), 5-amino-1-(2-O-n-butyl-β-D-ribofuranosyl)imidazole-4-carboxamide]
IC50 [1]: 175 µM

NC(=O)c1ncn([C@@H]2O[C@H](COP(=O)(O)O)[C@@H](O)[C@H]2O)c1N [AICA ribotide]
AMP deaminase inhibited (AMP deaminase): 38%

Nc1ncnc2c1ncn2[C@@H]1O[C@H](CO)[C@@H](O)[C@H]1O [Adenosine, 9-β-D-ribofuranosyladenine]
rolling velocity of granulocytes in microvessels [2]: twofold increase

Nc1c(C(=O)NC2CCCC2)ncn1C1OC(CO)C(O)C1O [Compound No. 10 (1-186), 5-Amino-1-beta-D-ribofuranosylimidazole-4-N-(cyclopentyl)carboxamide]
EC50 [3]: 350 µM | effect in a gerbil model of brain ischemia (brain ischemia): demonstrated protective effects | melting point: 158 to 160 °C

Nc1c(C(=O)NCc2ccccc2)ncn1[C@@H]1O[C@H](CO)[C@@H](O)[C@H]1O [Compound No. 11 (1-226), 5-Amino-1-beta-D-ribofuranosylimidazole-4-N-(benzyl)carboxamide]
Tissue Adenosine Levels (% Increase vs. Saline) (ischemic rat hearts; Expt 1): 53% | Tissue Adenosine Levels (% Increase vs. Saline) (ischemic rat hearts; Expt 2): 45% | IC50 [4]: 200 µM | effect in a gerbil model of brain ischemia (brain ischemia): demonstrated protective effects

NC[C@H]1O[C@@H](n2cnc(C(=O)NCc3ccc(Cl)cc3)c2N)[C@H](O)[C@@H]1O [Compound No. 53 (1-468), 5-Amino-1-(5-amino-5-deoxy-β-D-ribofuranosyl)imidazole-4-N-[(4-chlorophenyl)methyl]carboxamide Hydrochloride]
inhibition at 5 µM ([5]; 5 μM): 34 ± 4% | inhibition at 50 µM ([5]; 50 μM): 58 ± 2% | IC50 [6]: 150 µM | EC50 [3]: ~100 µM | Heart Rate (demand-induced ischemia; Baseline): 143 ± 6 beats/min | Mean Arterial Pressure (demand-induced ischemia; Baseline): 86 ± 5 mm Hg | % of NON-ISCHEMIC WALL THICKENING (demand-induced ischemia; Pace # 1 (before infusion), 50 μg/kg/min IV post-pace #1): 49.5 ± 6.5% | % of NON-ISCHEMIC WALL THICKENING (demand-induced ischemia; Pace # 2): 46.7 ± 7.0% | % of NON-ISCHEMIC WALL THICKENING (demand-induced ischemia; Pace # 3): 54.2 ± 9.4 % | % of NON-ISCHEMIC WALL THICKENING (demand-induced ischemia; Pace # 4): 48.1 ± 7.6 % | % of NON-ISCHEMIC WALL THICKENING (demand-induced ischemia; Pace # 5): 47.5 ± 8.2 % | % of NON-ISCHEMIC WALL THICKENING (demand-induced ischemia; Pace # 6): 42.1 ± 7.0 % | Heart Rate, Change from Baseline (demand-induced ischemia; Post Pace Rest Period 1): 1 ± 2 beats/min | Mean Arterial Pressure, Change from Baseline (demand-induced ischemia; Post Pace Rest Period 1): −1 ± 3 mm Hg | Heart Rate, Change from Baseline (demand-induced ischemia; Post Pace Rest Period 2): −2 ± 4 beats/min | Mean Arterial Pressure, Change from Baseline (demand-induced ischemia; Post Pace Rest Period 2): −2 ± 3 mm Hg | Heart Rate, Change from Baseline (demand-induced ischemia; Post Pace Rest Period 3): −1 ± 3 beats/min | Mean Arterial Pressure, Change from Baseline (demand-induced ischemia; Post Pace Rest Period 3): −8 ± 3 mm Hg | Heart Rate, Change from Baseline (demand-induced ischemia; Post Pace Rest Period 4): 2 ± 4 beats/min | Mean Arterial Pressure, Change from Baseline (demand-induced ischemia; Post Pace Rest Period 4): −7 ± 3 mm Hg | Heart Rate, Change from Baseline (demand-induced ischemia; Post Pace Rest Period 5): 1 ± 4 beats/min | Mean Arterial Pressure, Change from Baseline (demand-induced ischemia; Post Pace Rest Period 5): −8 ± 3 mm Hg | Heart Rate, Change from Baseline (demand-induced ischemia; Post Pace Rest Period 6): 2 ± 4 beats/min | Mean Arterial Pressure, Change from Baseline (demand-induced ischemia; Post Pace Rest Period 6): −7 ± 3 mm Hg | IC50 ([4]; Cavia porcellus): 70 µM | half-life [7]: 5.61 h | bioavailability ([7]; po, 10 mg/kg IV bolus and 20 mg/kg via stomach tube, read-out: Absolute Oral Bioavailability %): 32 ± 11%

NC(=O)c1ncn([C@@H]2O[C@H](COP(=O)(O)O)[C@@H](O)[C@H]2O)n1 [ribavirin monophosphate]
AMP deaminase inhibited (AMP deaminase): 54%

NC(=O)c1ncn([C@@H]2O[C@H](CO)[C@@H](O)[C@H]2O)n1 [ribavirin, 1-β-D-ribofuranosyl-1H-1,2,4-triazole-3-carboxamide]
mediator release ([8]; 1 μM for six days): inhibits mediator release significantly | β-hexosaminidase release ([8]; 10 μM added at the time of mast cell stimulation): does not affect | β-hexosaminidase release ([8]; three to seven days in 10 μM, washed, A23187 challenge): marked attenuation
